# Legend:
# tyrosine kinase of MCF7 = conditions: US 2011027809; cited from earlier work
# [1] = test system: tyrosine kinase of BT-474; conditions: US 2011027809; cited from earlier work
# [2] = test system: tyrosine kinase of SK-Br-3; conditions: US 2011027809; cited from earlier work
# [3] = test system: tyrosine kinase in cell membrane fraction of MDA-MB-231; experiment: Tyrosine kinase activity inhibition rate in cell membrane fraction (Poly-Glu4-Tyr substrate); format: biochemical
# How it was run: (§1)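 Each inhibitor is tested at a single 25 μM against membrane-fraction kinase (5 μg/ml protein) with 25 μM ATP. Substrate is biotinylated Poly-Glu4-Tyr on NeutrAvidin wells, 37 °C for 60 min. Signal comes from anti-pTyr-HRP chemiluminescence, relative to DMSO control.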
# [4] = test system: tyrosine kinase in cell membrane fraction of HCC1937; experiment: as above; format: biochemical
# How it was run: as §1
# [5] = test system: tyrosine kinase in cell membrane fraction of BT-483; experiment: as above; format: biochemical
# How it was run: as §1
# [6] = test system: tyrosine kinase in cell membrane fraction of T47D; experiment: as above; format: biochemical; conditions: 25 μM kinase inhibitor, 25 μM ATP
# How it was run: as §1
# [7] = test system: tyrosine kinase in cell membrane fraction of ZR-75-30; experiment: as above; format: biochemical
# How it was run: as §1
# [8] = test system: tyrosine kinase in cell membrane fraction of MDA-MB-415; experiment: as above; format: biochemical
# How it was run: as §1
# [9] = test system: tyrosine kinase in cell membrane fraction of HCC1569; experiment: as above; format: biochemical
# How it was run: as §1
# [10] = test system: tyrosine kinase in cell membrane fraction of HCC1954; experiment: as above; format: biochemical
# How it was run: as §1
# [11] = test system: tyrosine kinase in cell membrane fraction of HCC1419; experiment: as above; format: biochemical
# How it was run: as §1
# [12] = test system: tyrosine kinase in cell membrane fraction of HCC202; experiment: as above; format: biochemical
# How it was run: as §1
# [13] = test system: tyrosine kinase in cell membrane fraction of MDA-MB-157; experiment: as above; format: biochemical
# How it was run: as §1
# [14] = test system: tyrosine kinase in cell membrane fraction of MDA-MB-436; experiment: as above; format: biochemical
# How it was run: as §1
# tyrosine kinase of T47D = conditions: US 2011027809; cited from earlier work
# [15] = 25 μM kinase inhibitor, 25 μM ATP
compound,measurement,setting,value
"COc1cc2ncnc(Nc3ccc(Oc4ccccc4)cc3)c2cc1OC [Inhibitor 10, 4-(4′-phenoxyanilino)-6,7-dimethoxyquinazoline]",tyrosine kinase activity inhibitory effects caused by the Src inhibitor,tyrosine kinase of MCF7,low
same,tyrosine kinase activity inhibitory effects caused by the Src inhibitor,[1],high
same,tyrosine kinase activity inhibitory effects caused by the Src inhibitor,[2],high
same,Example 1 Inhibitory capacity of Src inhibitor,[3],high (the term “high” means a cell line whose inhibition rate of the Src inhibitor is more than the threshold value)
same,Inhibition rate,[3]; [15],63.6%
same,Example 1 Inhibitory capacity of Src inhibitor,[4],high (the term “high” means a cell line whose inhibition rate of the Src inhibitor is more than the threshold value)
same,Inhibition rate,[4]; [15],50.1%
same,Example 1 Inhibitory capacity of Src inhibitor,[5],high (the term “high” means a cell line whose inhibition rate of the Src inhibitor is more than the threshold value)
same,Inhibition rate,[5]; [15],78.5%
same,Inhibition rate,[6],42.3%
same,Example 1 Inhibitory capacity of Src inhibitor,[7],low (the term “low” means a cell line whose inhibition rate of the Src inhibitor is lower than the threshold value (=43.4%))
same,Inhibition rate,[7]; [15],37.3%
same,Example 1 Inhibitory capacity of Src inhibitor,[8],high (the term “high” means a cell line whose inhibition rate of the Src inhibitor is more than the threshold value)
same,Inhibition rate,[8]; [15],68.6%
same,Example 1 Inhibitory capacity of Src inhibitor,[9],high (the term “high” means a cell line whose inhibition rate of the Src inhibitor is more than the threshold value)
same,Inhibition rate,[9]; [15],71.3%
same,Example 1 Inhibitory capacity of Src inhibitor,[10],high (the term “high” means a cell line whose inhibition rate of the Src inhibitor is more than the threshold value)
same,Inhibition rate,[10]; [15],46.5%
same,Example 1 Inhibitory capacity of Src inhibitor,[11],low (the term “low” means a cell line whose inhibition rate of the Src inhibitor is lower than the threshold value (=43.4%))
same,Inhibition rate,[11]; [15],36.3%
same,Example 1 Inhibitory capacity of Src inhibitor,[12],low (the term “low” means a cell line whose inhibition rate of the Src inhibitor is lower than the threshold value (=43.4%))
same,Inhibition rate,[12]; [15],26.3%
same,Example 1 Inhibitory capacity of Src inhibitor,[13],high (the term “high” means a cell line whose inhibition rate of the Src inhibitor is more than the threshold value)
same,Inhibition rate,[13]; [15],60.3%
same,Example 1 Inhibitory capacity of Src inhibitor,[14],high (the term “high” means a cell line whose inhibition rate of the Src inhibitor is more than the threshold value)
same,Inhibition rate,[14]; [15],44.9%
same,tyrosine kinase activity inhibitory effects caused by the Src inhibitor,tyrosine kinase of T47D,low

# Reference: patent publication US20110318768A1, “METHOD FOR DETERMINING SENSITIVITY OF TUMOR CELLS TO TYROSINE KINASE INHIBITOR AND COMPUTER PROGRAM PRODUCT” (SYSMEX CORPORATION, priority 2010, published 2011)
